Experimental data published in patent publication US6642250B2, “1,8-naphthyridin-2(1H)-one derivatives” (Grelan Pharmaceutical Co., Ltd., priority 1999, dated 2003).

Columns and labels:
PDE I = experiment: PDE inhibition, type I PDE (cGMP substrate, calmodulin/CaCl2 added); format: biochemical; settings: PDE I from porcine hearts, cGMP 1 μM; read-out: Inhibition of PDE Isoenzymes (IC50) I
Protocol: (§1) The assays for PDE activity were conducted according to Nicholson et al. method (Br. J. Pharmacol., 97, 889 (1989)).
(§2) Among PDE isozymes, type I, II, III and IV PDEs as used herein were separated from porcine hearts by using an anion exchange chromatography. Type V PDE was also separated from porcine aortae with an anion exchange chromatography and used herein.
(§3) Each PDE isozyme was admixed with ethylene glycol (EG) to adjust the final EG concentration to 30%, then stored at −20° C. and diluted when used. The enzymatic activity for PDE I and V was measured using cGMP as a substrate while that for POE II, III and IV was measured using cAMP.
(§4) [^3H]-cAMP (962 GBq/mmol; Amersham, 25 μl (100,000 cpm)) or [^3H]-cGMP (962 GBq/mmol; Amersham, 25 μl (100,000 cpm)) was added together with each PDE isozyme (25 μl) to an incubation buffer solution with the composition given below to adjust the total volume to 250 μl. Each test compound was dissolved in DMSO to adjust the final concentration to 1% (2.5 μl/tube).
(§5) Incubation buffer solution (pH7.5):
(§6) Tris-HCl (50 mM), magnesium chloride (6 mM), dithiothreitol
(§7) (2.5 mM), 5-nucleotidase (4 μg/ml), bovine serum albumin
(§8) (0.23 mg/ml), and cAMP (1 μM) [or cGMP (1 μM)]
(§9) A mixture of the aforementioned test compound solution and the buffer solution was incubated at 30° C. for 20 minutes. The reaction was quenched by admixing with 1 ml of anion exchange resin slurry (AG1-X8, 200-400 meshes, chloride form; Bio-Rad) to absorb unreacted substrates.
(§10) After the reaction stopped, the mixture was centrifuged at 200×g for 10 minutes, and the resulting supernatant was collected with vials in 250 μl aliquots. To each vial was added 5 ml of ACS-II (scintillator, Amersham). The radioactivity was measured with a liquid scintillator counter for [^3H]-adenosine or [^3H]-guanosine and set as the PDE activity. The measurements were conducted under conditions wherein the enzymatic activity was elevated by adding calmodulin (20 U/ml; Amersham) and calcium chloride (0.1 mM) for PDE-I and cGMP (1 μM) for PDE II, respectively.
(§11) The % inhibition was calculated for test compounds, and IC50 (the concentration of each test compound required for 50% inhibition) was obtained by Probit method. The aforementioned rolipram ((−)-isomer, optical purity: 91% e.e.) known as the PDE IV inhibitor in the prior art was used for the reference compound in this assay.

PDE II = molecular target: T1, PDE II (Sus scrofa, UniProt F1SUV3); experiment: PDE inhibition, type II PDE (cAMP substrate, cGMP added); format: biochemical; settings: PDE II from porcine hearts, cAMP 1 μM; read-out: Inhibition of PDE Isoenzymes (IC50) II
T1 sequence (F1SUV3 1-945): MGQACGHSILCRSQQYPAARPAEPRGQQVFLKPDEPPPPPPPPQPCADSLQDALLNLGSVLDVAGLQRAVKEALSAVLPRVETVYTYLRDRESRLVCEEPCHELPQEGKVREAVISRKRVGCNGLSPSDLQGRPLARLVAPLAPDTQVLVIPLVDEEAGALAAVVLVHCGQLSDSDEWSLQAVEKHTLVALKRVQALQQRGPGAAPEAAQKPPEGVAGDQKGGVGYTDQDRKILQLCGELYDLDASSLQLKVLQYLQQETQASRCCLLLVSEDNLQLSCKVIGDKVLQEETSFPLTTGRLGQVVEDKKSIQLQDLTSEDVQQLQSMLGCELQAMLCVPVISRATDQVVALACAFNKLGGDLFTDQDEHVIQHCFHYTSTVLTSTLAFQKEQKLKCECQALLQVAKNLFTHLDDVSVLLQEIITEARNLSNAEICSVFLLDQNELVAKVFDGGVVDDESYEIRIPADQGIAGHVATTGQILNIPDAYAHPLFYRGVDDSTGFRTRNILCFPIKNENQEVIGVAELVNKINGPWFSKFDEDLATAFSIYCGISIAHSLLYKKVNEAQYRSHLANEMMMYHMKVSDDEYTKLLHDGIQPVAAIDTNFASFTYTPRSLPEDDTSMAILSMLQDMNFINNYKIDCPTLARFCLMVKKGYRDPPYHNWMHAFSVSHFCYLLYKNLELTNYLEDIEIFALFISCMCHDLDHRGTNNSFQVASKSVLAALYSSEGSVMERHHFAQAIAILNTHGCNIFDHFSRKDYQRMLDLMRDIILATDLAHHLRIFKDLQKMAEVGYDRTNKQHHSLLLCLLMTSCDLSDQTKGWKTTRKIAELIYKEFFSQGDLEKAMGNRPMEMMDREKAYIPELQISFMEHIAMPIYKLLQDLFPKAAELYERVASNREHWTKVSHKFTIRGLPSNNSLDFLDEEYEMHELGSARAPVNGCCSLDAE
Protocol: as §1, §2, §3, §4, §5, §6, §7, §8, §9, §10, §11

PDE IV = tested on: T2, PDE IV; experiment: PDE inhibition, type IV PDE (cAMP substrate); format: biochemical; settings: PDE IV from porcine hearts, cAMP 1 μM; read-out: Inhibition of PDE Isoenzymes (IC50) IV
T2 construct: other: PDE IV from porcine hearts, cAMP 1 μM
Protocol: as §1, §2, §3, §4, §5, §6, §7, §8, §9, §10, §11
Further, for a comparison with compounds as disclosed in JP, A, 63-159382 (1988), the PDE-inhibiting activity was also measured for Compounds A and D in Table 1 of JP, A, 63-159382 (1988).

PDE V = molecular target: T3, PDE V (Sus scrofa, UniProt A0A287B475); experiment: PDE inhibition, type V PDE (cGMP substrate); format: biochemical; settings: PDE V from porcine aortae, cGMP 1 μM; read-out: Inhibition of PDE Isoenzymes (IC50) V
T3 construct: Type V PDE was also separated from porcine aortae with an anion exchange chromatography and used herein
Protocol: as §1, §2, §3, §4, §5, §6, §7, §8, §9, §10, §11

Row | SMILES | melting point [°C] | IC50 (PDE I) [µM] | IC50 (PDE II) [µM] | IC50 (PDE IV) [µM] | IC50 (PDE V) [µM]
1 | O=c1c(Cc2ccccn2)cc2cccnc2n1-c1cccc([N+](=O)[O-])c1 [Example 1, 1-(3-Nitrophenyl)-3-(pyridin-2-ylmethyl)-1,8-naphthyridin-2(1H)-one] | 229 to 231 | – | – | – | –
2 | O=c1c(Cc2ccncc2)cc2cccnc2n1-c1cccc([N+](=O)[O-])c1 [Example 4, 1-(3-Nitrophenyl)-3-(pyridin-4-ylmethyl)-1,8-naphthyridin-2(1H)-one] | 230 | – | – | – | –
3 | O=c1c(CCCc2ccncc2)cc2cccnc2n1-c1cccc(Cl)c1 [Example 9, 1-(3-Chlorophenyl)-3-[3-(pyridin-4-yl)propyl]-1,8-naphthyridin-2(1H)-one] | 148 to 149 | – | – | – | –
4 | Cc1ccc2cc(CCCc3ccncc3)c(=O)n(-c3cccc([N+](=O)[O-])c3)c2n1 [Example 11, 7-Methyl-1-(3-nitrophenyl)-3-[3-(pyridin-4-yl)propyl]-1,8-naphthyridin-2(1H)-one] | 165 to 166 | – | – | – | –
5 | CSc1cccc(-n2c(=O)c(CCCc3ccncc3)cc3ccc(C)nc32)c1 [Example 12, 7-Methyl-1-(3-methylthiophenyl)-3-[3-(pyridin-4-yl)propyl]-1,8-naphthyridin-2(1H)-one] | 158 to 159 | – | – | – | –
6 | O=c1c(CCCCCCCc2ccncc2)cc2cccnc2n1-c1cccc([N+](=O)[O-])c1 [Example 18, 1-(3-Nitrophenyl)-3-[7-(pyridin-4-yl)heptyl]-1,8-naphthyridin-2(1H)-one] | 189 to 192 | – | – | – | –
7 | O=c1c(CCc2cccs2)cc2cccnc2n1-c1cccc([N+](=O)[O-])c1 [Example 19, 1-(3-Nitrophenyl)-3-[2-(2-thienyl)ethyl]-1,8-naphthyridin-2(1H)-one] | 175 to 176 | – | – | – | –
8 | O=c1c(CCCc2ccco2)cc2cccnc2n1-c1cccc([N+](=O)[O-])c1 [Example 20, 1-(3-Nitrophenyl)-3-[3-(2-furyl)propyl]-1,8-naphthyridin-2(1H)-one] | 166 to 167 | – | – | – | –
9 | O=c1c(CCCc2ccoc2)cc2cccnc2n1-c1cccc([N+](=O)[O-])c1 [Example 21, 1-(3-Nitrophenyl)-3-[3-(3-furyl)propyl]-1,8-naphthyridin-2(1H)-one] | 185 to 186 | – | – | – | –
10 | O=c1c(CCCCc2nc3ccccc3s2)cc2cccnc2n1-c1cccc([N+](=O)[O-])c1 [Example 22, 1-(3-Nitrophenyl)-3-[4-(benzothiazol-2-yl)butyl]-1,8-naphthyridin-2(1H)-one] | 167.5 to 169.5 | – | – | – | –
11 | N#Cc1cccc(-n2c(=O)c(CCCc3ccncc3)cc3cccnc32)c1 [Example 25, 1-(3-Cyanophenyl)-3-[3-(pyridin-4-yl)propyl]-1,8-naphthyridin-2(1H)-one] | 202 to 203.5 | – | – | – | –
12 | CS(=O)(=O)c1cccc(-n2c(=O)c(CCCc3ccncc3)cc3cccnc32)c1 [Example 26, 1-(3-Methylsulfonylphenyl)-3-[3-(pyridin-4-yl)propyl]-1,8-naphthyridin-2(1H)-one] | 127 to 131 | – | – | – | –
13 | O=c1c(CCCc2ccccn2)cc2cccnc2n1-c1cccc([N+](=O)[O-])c1 [Example 28, 1-(3-Nitrophenyl)-3-[3-(pyridin-2-yl)propyl]-1,8-naphthyridin-2(1H)-one] | 201 to 202 | – | – | – | –
14 | O=c1c(CCc2nc3ccccc3s2)cc2cccnc2n1-c1cccc([N+](=O)[O-])c1 [Example 29, 1-(3-Nitrophenyl)-3-[2-(benzothiazol-2-yl)ethyl]-1,8-naphthyridin-2(1H)-one] | 178 to 179 | – | – | – | –
15 | O=c1c(CCCc2nc3ccccc3s2)cc2cccnc2n1-c1cccc([N+](=O)[O-])c1 [Example 30, 1-(3-Nitrophenyl)-3-[3-(benzothiazol-2-yl)propyl]-1,8-naphthyridin-2(1H)-one] | 185 to 186 | – | – | – | –
16 | O=c1c(CCCc2nccs2)cc2cccnc2n1-c1cccc([N+](=O)[O-])c1 [Example 31, 1-(3-Nitrophenyl)-3-[3-(thiazol-2-yl)propyl]-1,8-naphthyridin-2(1H)-one] | 198 to 199 | – | – | – | –
17 | N#Cc1cccc(-n2c(=O)c(Cc3ccncc3)cc3cccnc32)c1 [Example No. 3, 1-(3-Cyanophenyl)-3-(pyridin-4-ylmethyl)-1,8-naphthyridin-2(1H)-one] | 229 to 230 | > 100 | > 100 | 1.2 | 3.9
18 | O=c1c(CCCCc2ccccn2)cc2cccnc2n1-c1cccc([N+](=O)[O-])c1 [Example No. 13, 1-(3-Nitrophenyl)-3-[4-(pyridin-2-yl)butyl]-1,8-naphthyridin-2(1H)-one] | 163 to 165 | 62 | 60 | 1.2 | 13
19 | O=c1c(CCCCc2ccncc2)cc2cccnc2n1-c1cccc([N+](=O)[O-])c1 [Example No. 15, 1-(3-Nitrophenyl)-3-[4-(pyridin-4-yl)butyl]-1,8-naphthyridin-2(1H)-one] | 168.8 to 169.6 | 100 | 47 | 1.4 | 8.7
20 | O=c1c(CCCCCc2ccncc2)cc2cccnc2n1-c1cccc([N+](=O)[O-])c1 [Example No. 17, 1-(3-Nitrophenyl)-3-[5-(pyridin-4-yl)pentyl]-1,8-naphthyridin-2(1H )-one] | 188.8 to 189.6 | > 100 | > 100 | 2.2 | > 100
